This is an account of results in patent US20220127232A1, “HISTONE ACETYLTRANSFERASE MODULATORS AND COMPOSITIONS AND USES THEREOF” (The Trustees of Columbia University in the City of New York, priority 2019, published 2022).

“Also recorded” adds a separate entry of the source. Where two headings read alike, the source gives them in different places.

For data set [1] the following is noted: cited from earlier work.
The nature of data set [2]: Stability in human liver microsomes. In kind it is in vitro ADME. As for the experimental part:
Some compounds were tested for stability in human liver microsomes as shown below in Table 2.
Mixed-gender human liver microsomes (Lot #1010420) were purchased from XenoTech. The reaction mixture, minus NADPH, was prepared as described below. The test article was added into the reaction mixture at a final concentration of 1 μM. The control compound, testosterone, was run simultaneously with the test article in a separate reaction. An aliquot of the reaction mixture (without cofactor) was equilibrated in a shaking water bath at 37° C. for 3 minutes. The reaction was initiated by the addition of the cofactor, and the mixture was incubated in a shaking water bath at 37° C. Aliquots (100 μL) were withdrawn at 0, 10, 20, 30, and 60 minutes. Test article and testosterone samples were immediately combined with 400 μL of ice-cold 50/50 acetonitrile (ACN)/H2O containing 0.1% formic acid and internal standard to terminate the reaction. The samples were then mixed and centrifuged to precipitate proteins. All samples were assayed by LC-MS/MS using electrospray ionization. Analytical conditions are outlined in Appendix 1. The peak area response ratio (PARR) to internal standard was compared to the PARR at time 0 to determine the percent remaining at each time point. Half-lives and clearance were calculated using GraphPad software, fitting to a single-phase exponential decay equation.
Liver Microsomes 0.5 mg/mL NADPH (cofactor) 1 mM
Potassium Phosphate, pH 7.4 100 mM
Intrinsic clearance (CLint) was calculated based on CLint=k/P, where k is the elimination constant and P is the protein concentration in the incubation.

The next data set deals with p300 (Homo sapiens, UniProt Q09472). Put plainly: Histone Acetyltransferase (HAT) in vitro acetylation assay, western blot of H3K27ac / H3K18ac. In kind it is biochemical. The note with it: compound in DMSO, EC50 for activators. Here is the method:
The aim of the in vitro acetylation assay is to measure the enzymatic activity of the various compounds towards p300.
First, the drug is prepared:
Second, dilute p300 in AM1 buffer to a concentration of 40 ng/μL (final concentration in the reaction 20 ng/μL). This is accomplished by diluting 1 μL of p300 (at 0.4 μg/μL) into […] of AM1 buffer.
Third, prepare the Master Mix. Prepare the Master Mix in low protein binding tubes (ThermoFisher Cat. No. 90410), 20 μL system.
Incubate reactions at 30° C. for 30 minutes.
Incubate reactions at 30° C. for 1 hour.
Fourth, perform the western blot assay. • Add 6.7 μL of Laemmli Sample Buffer 4× (Bio-Rad Laboratories Cat. No. 161-0737) for each reaction and boil samples at 95° C. for 5 min. • Charge 10 μL for each sample in 2 Tris Glycine 4-15% gels (Bio-Rad Laboratories Cat. No. 456-1086). Running Buffer: Tris-Glycine 1× (pour in the cell up to the writing “2 gels”). • Run at 90 V for 1 hour (until the gel front reaches the green line of cell). • Semi-dry transfer with Trans-Blot® Turbo™ Blotting System from Bio-Rad Laboratories (Trans-Blot® Turbo™ RTA midi PVDF transfer kit Cat. No1704275). • Activate PVDF membrane in methanol for 5 minutes and then wet in Trans-Blot® Turbo™ transfer buffer. • Wet stacks in transfer buffer. • Transfer at 23 V 1.3 A for 7 minutes. • Blocking buffer: 5% Non-Fat milk in TBST (tween 0.1%) 1 hour at room temperature. • Cut the membranes to get Ac-His 3 at 17 kDa and p300 at 300 kDa. • Incubate with primary antibodies overnight at 4° C. • The day after, make 3 washes in TBST (Tween 0.1%) of 10 minutes. • Incubate with secondary antibody at room temperature for 1 hour. • Make 3 washes in TBST (Tween 0.1%) of 5 minutes. • Incubate membranes with ECL (SuperSignal West Dura Extended Duration Substrate from ThermoFisher) for 5 minutes at room temperature. • Acquire the image with ChemiDoc Odyssey Fc 2 minutes.
To detect total H3 (loading control), strip the membranes with Restore™ Western Blot Stripping Buffer according to the manufacturer protocol.
Various compounds were tested for enzymatic activity with respect to Lys 18 and Lys 27. EC50 is indicated for Activators and IC50 for inhibitors respectively.
FIGS. 1A to 25B are graphs showing the lysine residue acetylation as a function of concentration for the compounds set forth in Table 3. The shaded area corresponds to the average values of lysine residue acetylation (continuous line) and their standard error range measured in the absence of compound and DMSO. The number of replicates is represented by “n”.

The test system of data set [3] is hippocampal slices from WT mice. Put plainly: Long-term potentiation (LTP) in hippocampal slices perfused with oTau or oAβ. In kind it is cell-based. The note with it: slices perfused with compound and either oTau (50 nM) or oAβ (200 nM). From the text: Synaptic dysfunction is a major hallmark of AD (Histol Histopathol, 1995. 10(2): p. 509-19; herein incorporated by reference in its entirety). An aspect of the drug screening protocol can include a measurement of the effect of compounds onto synaptic function. Amyloid-beta (Aβ) is a toxic peptide that is thought to underlie subtle amnesic changes occurring at early stages of Alzheimer's disease. It impairs both memory and its electrophysiological surrogate, long-term potentiation (LTP). LTP can be examined because it is a type of synaptic plasticity thought to underlie learning and memory. RA010115 can rescue the Aβ-induced reduction of LTP, and other compounds can also be screened to identify those that can re-establish normal LTP. The compounds can be applied for 20 min. Controls can be performed on slices in the absence of Aβ, and mice treated with compound. Tau is another peptide that is involved in cell to cell communication, and impairs both memory and LTP in animal models of AD and other tauopathies. FIG. 26 is a graph showing that RA010115 rescues oligomeric Tau (oTau)- and oligomeric Aβ (o Aβ)-induced LTP deficits. LTP was impaired in hippocampal slices from WT mice perfused with oTau (50 nM) and oAβ (200 nM), whereas there was no impairment in slices treated with RA10115 or vehicle. LTP was restored in slices perfused with RA010115 and either oTau or oAβ. The horizontal solid bar represents oAβ and oTau perfusion while the horizontal dashed bar represents RA010115. The three arrows correspond to the theta-burst stimulation. […]

Sequence of p300 (Q09472 whole entry, species assumed): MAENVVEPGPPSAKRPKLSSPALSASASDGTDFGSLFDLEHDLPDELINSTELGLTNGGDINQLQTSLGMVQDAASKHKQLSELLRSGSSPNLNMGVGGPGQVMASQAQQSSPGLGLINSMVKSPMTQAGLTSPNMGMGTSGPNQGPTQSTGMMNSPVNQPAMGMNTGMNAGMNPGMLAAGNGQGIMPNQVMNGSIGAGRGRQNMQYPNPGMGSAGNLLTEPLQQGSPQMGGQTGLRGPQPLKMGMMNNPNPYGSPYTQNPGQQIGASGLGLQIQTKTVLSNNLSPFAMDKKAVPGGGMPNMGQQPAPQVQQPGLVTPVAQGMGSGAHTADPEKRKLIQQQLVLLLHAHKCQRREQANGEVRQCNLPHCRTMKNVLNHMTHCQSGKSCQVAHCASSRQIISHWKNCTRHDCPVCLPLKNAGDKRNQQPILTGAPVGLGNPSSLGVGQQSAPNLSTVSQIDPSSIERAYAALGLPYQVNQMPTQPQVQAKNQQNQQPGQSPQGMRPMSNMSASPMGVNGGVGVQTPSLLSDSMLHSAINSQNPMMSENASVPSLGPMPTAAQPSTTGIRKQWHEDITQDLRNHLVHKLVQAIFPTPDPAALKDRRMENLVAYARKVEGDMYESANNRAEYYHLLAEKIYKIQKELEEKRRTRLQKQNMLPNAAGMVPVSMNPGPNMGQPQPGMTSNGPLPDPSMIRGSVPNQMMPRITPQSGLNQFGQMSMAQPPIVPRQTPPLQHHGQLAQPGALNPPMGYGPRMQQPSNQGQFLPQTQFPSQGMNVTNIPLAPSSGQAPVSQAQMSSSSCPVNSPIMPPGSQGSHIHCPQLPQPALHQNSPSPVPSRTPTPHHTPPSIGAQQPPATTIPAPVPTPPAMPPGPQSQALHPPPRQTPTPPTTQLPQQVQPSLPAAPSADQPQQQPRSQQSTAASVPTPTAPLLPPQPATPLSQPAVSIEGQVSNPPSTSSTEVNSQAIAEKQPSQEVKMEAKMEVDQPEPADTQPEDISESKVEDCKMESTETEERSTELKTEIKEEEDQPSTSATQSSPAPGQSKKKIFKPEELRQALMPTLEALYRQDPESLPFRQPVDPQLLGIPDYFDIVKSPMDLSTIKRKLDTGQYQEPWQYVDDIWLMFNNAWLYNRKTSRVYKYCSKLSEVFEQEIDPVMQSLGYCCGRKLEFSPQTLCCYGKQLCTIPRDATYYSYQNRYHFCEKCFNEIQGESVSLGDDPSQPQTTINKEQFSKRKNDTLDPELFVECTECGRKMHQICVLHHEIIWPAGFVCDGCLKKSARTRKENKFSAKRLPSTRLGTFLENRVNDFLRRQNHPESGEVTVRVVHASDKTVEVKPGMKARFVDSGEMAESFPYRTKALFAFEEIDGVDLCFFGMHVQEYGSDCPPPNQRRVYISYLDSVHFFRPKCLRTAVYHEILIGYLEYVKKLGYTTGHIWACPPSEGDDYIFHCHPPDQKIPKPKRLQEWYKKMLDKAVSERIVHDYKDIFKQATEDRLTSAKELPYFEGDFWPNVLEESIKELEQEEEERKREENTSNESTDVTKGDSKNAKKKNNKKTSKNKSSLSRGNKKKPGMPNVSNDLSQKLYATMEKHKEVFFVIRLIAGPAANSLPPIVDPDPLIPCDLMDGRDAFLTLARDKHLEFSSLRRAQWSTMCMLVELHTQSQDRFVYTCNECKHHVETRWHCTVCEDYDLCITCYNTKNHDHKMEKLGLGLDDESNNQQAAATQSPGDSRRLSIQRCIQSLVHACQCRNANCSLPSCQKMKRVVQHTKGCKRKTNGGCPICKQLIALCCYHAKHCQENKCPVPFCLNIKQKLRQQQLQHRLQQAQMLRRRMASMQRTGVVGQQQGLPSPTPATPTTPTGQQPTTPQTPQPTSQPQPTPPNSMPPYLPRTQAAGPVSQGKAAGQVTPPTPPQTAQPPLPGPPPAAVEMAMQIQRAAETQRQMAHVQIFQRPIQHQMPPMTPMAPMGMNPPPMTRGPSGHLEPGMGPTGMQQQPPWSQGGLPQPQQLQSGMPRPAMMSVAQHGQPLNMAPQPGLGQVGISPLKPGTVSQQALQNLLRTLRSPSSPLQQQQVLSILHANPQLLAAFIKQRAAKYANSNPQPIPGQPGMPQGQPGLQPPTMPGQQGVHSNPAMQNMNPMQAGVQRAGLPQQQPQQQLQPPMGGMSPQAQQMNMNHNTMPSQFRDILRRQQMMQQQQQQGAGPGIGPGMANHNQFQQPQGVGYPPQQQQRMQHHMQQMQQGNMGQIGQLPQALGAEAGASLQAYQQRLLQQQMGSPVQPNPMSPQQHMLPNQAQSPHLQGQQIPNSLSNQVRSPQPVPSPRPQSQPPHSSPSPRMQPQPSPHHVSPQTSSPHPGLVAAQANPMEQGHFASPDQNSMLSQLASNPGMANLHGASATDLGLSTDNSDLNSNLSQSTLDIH

As to `CCCCCCCCCCCCCCCc1cccc(OCC)c1C(=O)Nc1ccc(Cl)c(C(F)(F)F)c1` [CTPB], the Solubility result in data set [1] is “insoluble”.
Regarding `CCOc1ccccc1C(=O)Nc1ccc(Cl)c(C(F)(F)F)c1` [CTB], the Solubility entry in data set [1] is given as “insoluble”.
As to `CCOc1cccc(OCCN(C)C)c1C(=O)Nc1ccc(Cl)c(C(F)(F)F)n1` [RA013915], the microsomal CLint at 1 μM in data set [2] (both sexes, human, liver microsomes, pH 7.4, human liver microsomes, 1 μM, read-out: CLint) came to 43.2 µL/min/mg. Further, the half-life at 1 μM in data set [2] (both sexes, human, liver microsomes, pH 7.4, human liver microsomes, 1 μM, read-out: Half-life) amounted to 32.1 min. The “% Remaining of Initial (n = 1) 0 min” value in data set [2] (human liver microsomes, test article 1 μM, 0 min) worked out at 100%. The “% Remaining of Initial (n = 1) 10 min” value in data set [2] (human liver microsomes, test article 1 μM, 10 min) is 79.6%. The “% Remaining of Initial (n = 1) 20 min” value in data set [2] (human liver microsomes, test article 1 μM, 20 min) was 63.8%. Also, the “% Remaining of Initial (n = 1) 30 min” value in data set [2] (human liver microsomes, test article 1 μM, 30 min) turned out to be 52.4%. The “% Remaining of Initial (n = 1) 60 min” value in data set [2] (human liver microsomes, test article 1 μM, 60 min) was determined as 27.6%. Also, the EC50 came to 0.0726 µM on p300 (read-out: H3-Lys 18 EC50) and 0.0576 µM on p300 (read-out: H3-Lys 27 EC50). In data set [3], the “oTau- and oAβ-induced LTP deficits” value was “restored; also recorded: rescues”.
